Where a name gives a salt, the structure may show the parent alone.
Biological target: T1, recombinant human LTA4 hydrolase (rhLTA4H) (Homo sapiens, UniProt P09960)
T1 construct: made in house; host or cells: Spodoptera frugiperda (Sf-9) cells, baculovirus (pFastBac1)
T1 sequence (P09960 1-611): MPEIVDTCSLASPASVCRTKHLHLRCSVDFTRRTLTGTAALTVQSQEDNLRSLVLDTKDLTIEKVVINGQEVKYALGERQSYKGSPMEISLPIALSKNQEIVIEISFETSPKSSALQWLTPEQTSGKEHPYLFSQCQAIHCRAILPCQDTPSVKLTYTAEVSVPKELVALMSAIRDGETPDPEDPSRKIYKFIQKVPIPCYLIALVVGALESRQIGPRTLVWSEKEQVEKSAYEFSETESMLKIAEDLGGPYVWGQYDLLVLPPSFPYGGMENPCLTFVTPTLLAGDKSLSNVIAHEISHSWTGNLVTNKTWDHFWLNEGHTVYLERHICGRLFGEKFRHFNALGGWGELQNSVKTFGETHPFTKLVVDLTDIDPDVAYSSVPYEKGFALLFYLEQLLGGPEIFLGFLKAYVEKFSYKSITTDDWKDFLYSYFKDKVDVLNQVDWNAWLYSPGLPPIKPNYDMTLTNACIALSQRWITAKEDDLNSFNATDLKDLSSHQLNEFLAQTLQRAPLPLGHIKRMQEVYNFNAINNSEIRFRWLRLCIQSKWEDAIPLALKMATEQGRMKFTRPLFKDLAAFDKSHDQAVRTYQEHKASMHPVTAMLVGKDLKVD
Test: Recombinant Human LTA4 Hydrolase Assay for LTA4 Hydrolase Inhibitor Activity
Assay type: biochemical
Conditions: average of results obtained; LTB4 quantified by enzyme-linked immunoassay
Description: Biological Methods: Recombinant Human LTA4 Hydrolase Assay for LTA4 Hydrolase Inhibitor Activity
Compounds of the present invention were tested for LTA4 hydrolase inhibitor activity against recombinant human LTA4 hydrolase (rhLTA4H). Vectors were prepared and used to express rhLTA4H essentially as follows: LTA4 hydrolase encoding DNA was amplified by polymerase chain reaction (PCR) using a human placental cDNA library as a template. Oligonucleotide primers for the PCR reaction were based on the 5′-end, and the complement of the 3′-end, of the published nucleotide sequence for the coding region of the human LTA4 hydrolase gene (C. D. Funk et al., Proc. Natl. Acad. Sci. USA 1987, 84:6677-6681). The amplified 1.9 kb DNA fragment encoding LTA4 hydrolase was isolated and cloned into the pFastBac1 vector (Invitrogen). Recombinant baculovirus was generated as described by the manufacturer, and used to infect Spodoptera frugiperda (Sf-9) cells. Recombinant LTA4 hydrolase enzyme was purified from the infected Sf-9 cells essentially as described by J. K. Gierse et al. (Protein Expression and Purification 1993, 4:358-366). The purified enzyme solution was adjusted to contain 0.29 mg/mL LTA4 hydrolase, 50 mM Tris (pH 8.0), 150 mM NaCl, 5 mM dithiothreitol, 50% glycerol, and EDTA-free Complete protease inhibitor cocktail (Roche). The specific activity of the enzyme was about 3.8 μmol/min/mg.
LTA4 substrate was prepared from the methyl ester of LTA4 (Cayman Chemical) by treatment with 67 equiv of NaOH under nitrogen at rt for 40 min. The LTA4 substrate in its free acid form was kept frozen at −80° C. until needed. Each compound was diluted to different concentrations in assay buffer (0.1 M potassium phosphate (pH 7.4), 5 mg/mL fatty acid free BSA) containing 10% DMSO. A 25-uL aliquot of each compound dilution was incubated for 10 min at rt with an equal volume of assay buffer containing 36 ng of recombinant human LTA4H. The solution was then adjusted to 200 μL with assay buffer. LTA4 (free acid) was thawed and diluted in assay buffer to a concentration of 357 ng/mL, and 25 μL (9 ng) of LTA4 substrate was added to the reaction mixture (total volume=225 μL) at time zero. Each reaction was carried out at rt for 10 min. The reaction was stopped by diluting 10 μL of the reaction mixture with 200 μL of assay buffer. LTB4 was quantified in the diluted sample by a commercially available enzyme-linked immunoassay (Cayman Chemical Co.), as recommended by the manufacturer. Positive controls, under essentially identical conditions but without addition of an inhibitor compound, and negative controls, containing all assay components except enzyme, were routinely run in each experiment. […]
Results for the compounds tested in this assay are presented in Table 1 as an average of results obtained.

| SMILES | Ki |
| --- | --- |
| CC(=O)N[C@H]1C[C@H]2CC[C@@H](C1)N2CCOc1ccc(Oc2nc3cc(F)ccc3s2)cc1 [Example 216, meso-endo-N-(8-{2-[4-(5-Fluoro-benzothiazol-2-yloxy)-phenoxy]-ethyl}-8-aza-bicyclo[3.2.1]oct-3-yl)-acetamide] | 100 nM |
| CS(=O)(=O)N1C[C@@H]2C[C@H]1CN2Cc1ccc(Oc2nc3cc(Cl)ccc3s2)cc1 [Example 206, (S,S)-5-Chloro-2-[4-(5-methanesulfonyl-2,5-diaza-bicyclo[2.2.1]hept-2-ylmethyl)-phenoxy]-benzothiazole] | 1100 nM |
| CC(C)(C)OC(=O)N1CC(C(=O)N2C[C@@H]3C[C@H]2CN3CCOc2ccc(Oc3nc4ccccc4s3)cc2)C1 [Example 67, (S,S)-3-(5-{2-[4-(Benzothiazol-2-yloxy)-phenoxy]-ethyl}-2,5-diaza-bicyclo[2.2.1]heptane-2-carbonyl)-azetidine-1-carboxylic acid tert-butyl ester] | 201 nM |
| CC(=O)N1C[C@@H]2C[C@H]1CN2Cc1ccc(Cc2nc3ccccc3s2)cc1 [Example 4, (S,S)-1-[5-(4-Benzothiazol-2-ylmethyl-benzyl)-2,5-diaza-bicyclo[2.2.1]hept-2-yl]-ethanone] | 163 nM |
| NC(=O)N1CC2CCN(Cc3ccc(Oc4nc5ccccc5s4)cc3)CC2C1 (single isomer, unassigned; (-)) [Example 142B, (−)-5-[4-(Benzothiazol-2-yloxy)-benzyl]-octahydro-pyrrolo[3,4-c]pyridine-2-carboxylic acid amide] | 95 nM |
| NC(=O)N1[C@@H]2CC[C@H]1C[C@H](NCc1ccc(Oc3nc4cccc(F)c4s3)cc1)C2 [Example 171, meso-endo-3-[4-(7-Fluoro-benzothiazol-2-yloxy)-benzylamino]-8-aza-bicyclo[3.2.1]octane-8-carboxylic acid amide] | 224 nM |
| CS(=O)(=O)N1C[C@H]2C[C@@H]1CN2Cc1ccc(Oc2nc3ccc(Cl)cc3s2)cc1 [Example 236, (R,R)-6-Chloro-2-[4-(5-methanesulfonyl-2,5-diaza-bicyclo[2.2.1]hept-2-ylmethyl)-phenoxy]-benzothiazole] | 169 nM |
| c1ccc2sc(Oc3ccc(CN4CCC5CNCC5C4)cc3)nc2c1 (stereo not shown) [Example 85, 2-[4-(Octahydro-pyrrolo[3,4-c]pyridin-5-ylmethyl)-phenoxy]-benzothiazole hydrochloride] | 450 nM |
| CC(=O)N[C@@H]1C[C@H]2CC[C@@H](C1)N2CCOc1ccc(Oc2nc3c(Cl)cccc3s2)cc1 [Example 240, meso-exo-N-(8-{2-[4-(4-Chloro-benzothiazol-2-yloxy)-phenoxy]-ethyl}-8-aza-bicyclo[3.2.1]oct-3-yl)-acetamide] | 510 nM |
| CS(=O)(=O)N1C[C@H]2C[C@@H]1CN2Cc1ccc(Oc2nc3cccc(F)c3s2)cc1 [Example 189, (R,R)-7-Fluoro-2-[4-(5-methanesulfonyl-2,5-diaza-bicyclo[2.2.1]hept-2-ylmethyl)-phenoxy]-benzothiazole] | 375 nM |
| CS(=O)(=O)N1C[C@@H]2C[C@H]1CN2CCOc1ccc(Oc2nc3cccc(Cl)c3s2)cc1 [Example 182, (S,S)-7-Chloro-2-{4-[2-(5-methanesulfonyl-2,5-diaza-bicyclo[2.2.1]hept-2-yl)-ethoxy]-phenoxy}-benzothiazole] | 1590 nM |
| CC(=O)N1[C@@H]2CC[C@H]1C[C@H](NCCOc1ccc(Oc3nc4cccc(F)c4s3)cc1)C2 [Example 263, meso-exo-1-(3-{2[4-(7-Fluoro-benzothiazole-2-yloxy)-phenoxy]-ethylamino}8-aza-bicyclo[3.2.1]oct-8-yl)-ethanone] | 190 nM |

Now those with a lower Ki, led by results:

| Ki | SMILES |
| --- | --- |
| 40 nM | O=C(CNC(=O)C(F)(F)F)N1CCC2CN(Cc3ccc(Oc4nc5ccccc5s4)cc3)CC21 (stereo not shown) [Example 98, N-(2-{5-[4-(Benzothiazol-2-yloxy)-benzyl]-hexahydro-pyrrolo[3,4-b]pyrrol-1-yl}-2-oxo-ethyl)-2,2,2-trifluoro-acetamide] |
| 35 nM | NC(=O)N1CC2CCN(Cc3ccc(Oc4nc5ccccc5s4)cc3)CC2C1 (racemic) [Example 141, (±)-5-[4-(Benzothiazol-2-yloxy)-benzyl]-octahydro-pyrrolo[3,4-c]pyridine-2-carboxylic acid amide] |
| 16 nM | CC(=O)N[C@H]1C[C@H]2CC[C@@H](C1)N2CCOc1ccc(Oc2nc3c(F)cccc3s2)cc1 [Example 273, meso-endo-N-(8-{2-[4-(4-Fluoro-benzothiazol-2-yloxy)-phenoxy]-ethyl}-8-aza-bicyclo[3.2.1]oct-3-yl)-acetamide] |
| 20 nM | CC(=O)N1CC2CCC(C1)N2CCOc1ccc(Oc2nc3cc(F)ccc3s2)cc1 [Example 199, meso-1-(8-{2-[4-(5-Fluoro-benzothiazol-2-yloxy)-phenoxy]-ethyl}-3,8-diaza-bicyclo[3.2.1]oct-3-yl)-ethanone] |
| 17 nM | CS(=O)(=O)N[C@@H]1C[C@H]2CC[C@@H](C1)N2CCc1ccc(Oc2nc3ccc(F)cc3s2)cc1 [Example 231, meso-exo-N-(8-{2-[4-(6-Fluoro-benzothiazol-2-yloxy)-phenyl]-ethyl}-8-aza-bicyclo[3.2.1]oct-3-yl)-methanesulfonamide] |
| 23 nM | O=C(CO)N1CC2CN(Cc3ccc(Oc4nc5ccccc5s4)cc3)CC2C1 (stereo not shown) [Example 118, 1-{5-[4-(Benzothiazol-2-yloxy)-benzyl]-hexahydro-pyrrolo[3,4-c]pyrrol-2-yl}-2-hydroxy-ethanone] |
| 39 nM | O=C(CO)N1C[C@@H]2C[C@H]1CN2Cc1ccc(Oc2nc3ccccc3s2)cc1F [Example 78, (S,S)-1-{5-[4-(Benzothiazol-2-yloxy)-2-fluoro-benzyl]-2,5-diaza-bicyclo[2.2.1]hept-2-yl}-2-hydroxy-ethanone] |
| 4 nM | CC(C)(O)C(=O)N[C@H]1C[C@H]2CC[C@@H](C1)N2Cc1ccc(Oc2nc3ccccc3s2)cc1 [Example 54, meso-endo-N-{8-[4-(Benzothiazol-2-yloxy)-benzyl]-8-aza-bicyclo[3.2.1]oct-3-yl}-2-hydroxy-2-methyl-propionamide] |
| 32 nM | NC(=O)N1CC2CN(CCOc3ccc(Oc4nc5ccccc5s4)cc3)CC2C1 (stereo not shown) [Example 134, 5-{2-[4-(Benzothiazol-2-yloxy)-phenoxy]-ethyl}-hexahydro-pyrrolo[3,4-c]pyrrole-2-carboxylic acid amide] |
| 1 nM | CC(=O)N[C@H]1C[C@H]2CC[C@@H](C1)N2Cc1ccc(Oc2nc3c(F)cccc3s2)cc1F [Example 160, meso-endo-N-{8-[2-Fluoro-4-(4-fluoro-benzothiazol-2-yloxy)-benzyl]-8-aza-bicyclo[3.2.1]oct-3-yl}-acetamide] |
| 64 nM | CC(=O)N[C@@H]1C[C@H]2CC[C@@H](C1)N2CCc1ccc(Oc2nc3cc(F)ccc3s2)cc1 [Example 266, meso-exo-N-(8-{2-[4-(5-Fluoro-benzothiazol-2-yloxy)-phenyl]-ethyl}-8-aza-bicyclo[3.2.1]oct-3-yl)-acetamide] |
| 18 nM | NC(=O)N1C[C@@H]2CCN(Cc3ccc(Oc4nc5ccccc5s4)cc3)[C@@H]2C1 [Example 137, (S,S)-1-[4-(Benzothiazol-2-yloxy)-benzyl]-hexahydro-pyrrolo[3,4-b]pyrrole-5-carboxylic acid amide] |
| 15 nM | NC(=O)N[C@H]1C[C@H]2CC[C@@H](C1)N2CCOc1ccc(Oc2nc3cc(F)ccc3s2)cc1 [Example 219, meso-endo-(8-{2-[4-(5-Fluoro-benzothiazol-2-yloxy)-phenoxy]-ethyl}-8-aza-bicyclo[3.2.1]oct-3-yl)-urea] |
